Measured values reported in patent US20210353595A1, “USE OF MELATONIN IN PREPARATION OF MEDICAMENT FOR INHIBITING AND/OR KILLING BACTERIUM” (priority 2020, published 2021).
“Also recorded” adds a separate entry of the source.

What was measured:
[1] = tested on: Klebsiella pneumoniae; assay: Growth curve with melatonin and citric acid; format: cell-based; conditions: MT 1-3 mg/mL, FIG. 27
Procedure: (§1) In additional studies, 1 mL of Klebsiella pneumoniae, Pseudomonas aeruginosa, Diplococcus pneumoniae and Streptococcus pneumoniae at the logarithmic growth stage was added into 100 mL of fresh and sterile Martin broth medium containing different concentrations of melatonin and citric acid (CA) (MT-1 mg/mL, MT-1 mg/mL-CA-1 mg/mL, MT-1 mg/mL-CA-2 mg/mL, MT-1 mg/mL-CA-3 mg/mL; MT-2 mg/mL, MT-2 mg/mL-CA-1 mg/mL, MT-2 mg/mL-CA-2 mg/mL, MT-2 mg/mL-CA-3 mg/mL; MT-3 mg/mL, MT-3 mg/mL-CA-1 mg/mL, MT-3 mg/mL-CA-2 mg/mL MT-3 mg/mL-CA-3 mg/mL).

[2] = tested on: Pseudomonas aeruginosa; assay: Growth curve with melatonin and citric acid; format: cell-based; conditions: MT 1-3 mg/mL, FIG. 27
Procedure: as §1

[3] = tested on: Pneumococcus; assay: Growth curve with melatonin and citric acid; format: cell-based, Diplococcus pneumoniae; conditions: MT 1-3 mg/mL, FIG. 27
Procedure: as §1

[4] = tested on: Pasteurella multocida; assay: LIVE/DEAD BacLight integrity of bacterial cell membrane; format: cell-based; conditions: melatonin greater than the MIC concentration; 8, 12, 16 hours; time- and dose-dependent; FIG. 9
Procedure: The integrity of bacterial cell membrane was evaluated with a LIVE/DEAD BacLight bacterial detection kit. 1 mL of bacterial culture was centrifuged at 3000 rpm for 10 minutes, the supernatant was removed, and the cells were washed with 10 mL of 0.85% NaCl for 3 times. The precipitated cells were resuspended and mixed with 1 mL of 0.85% NaCl. Then a mixture of SYTO9 fluorescent nucleic acid dye and propidium iodide mixed at the equal volume (3 μL each) was added into the resuspended solution. The mixture was thoroughly mixed and incubated in the dark at room temperature for 15 minutes. 5 μL of suspension of stained bacteria was added between a slide glass and a 18 mm square cover glass. (The combination of two nucleic acid dyes in this kit can distinguish living bacteria with intact membranes from dead bacteria with damaged membranes.) The living bacteria were dyed green with SYTO9, while the dead bacteria presented as red because of the interaction between propidium iodide and the double-stranded DNA of the bacteria. The fluorescence micrographs of stained bacteria were taken by OLYMPUS IX51 inverted microscope. Each experiment was carried out in triplicate for three times.

[5] = tested on: P. multocida cells; assay: SEM and TEM morphology of bacterial cells; format: cell-based, Pasteurella multocida; conditions: MT 1, 2 or 3 mg/mL, 8, 12 or 16 hours
Procedure: The effect of melatonin on the morphologies of P. multocida cells were evaluated employing SEM and TEM. 1 mL of fresh Pasteurella multocida (1×10^9 CFU) at the logarithmic growth stage was added into 100 mL of fresh Martin liquid medium containing different concentrations (1, 2 or 3 mg/mL) of MT. MT-free DMSO was used as a solvent control group and ampicillin (100 μg/mL) was used as a positive control group. All cultures were shaken at 220 rpm in a shaker at 37° C. for 8 hours, 12 hours or 16 hours. The bacterial samples were centrifuged at 3000 r/min for 10 minutes, the supernatant was removed, and cells were collected and washed with PBS for 3 times. Then the cells were fixed with a fixation solution of 2.5% fresh glutaraldehyde for 6 hours, and washed with PBS for 3 times, each time for 10 minutes. Subsequently, the SEM samples were dehydrated with 50%, 70%, 80% and 90% ethanol for 15 minutes respectively, and then dehydrated with 100% ethanol for 3 times, each time for 30 minutes. Ethanol was removed by washing with tert-butyl alcohol for three times, each time for 30 minutes. The samples were dried by a freeze dryer and plated with 10 nm of gold film by an ion sputtering device. The samples were examined using a field scanning electron microscope (FESEM, Hitch SU8010).
The TEM samples were fixed with 1%-2% […] for 2-3 hours, and washed with […] 3 times, each time for 10 minutes. The samples were dehydrated with 30%, 50%, 70%, 80% and 90% ethanol for 20 minutes respectively, and then dehydrated with 100% ethanol 3 times, each time for 30 minutes. Ethanol was replaced with acetone three times, each time for 30 minutes. The bacterial samples were placed on a copper grid with a formvar membrane, and negatively stained with phosphotungstic acid (2% v/v, pH=6.7). The surface area of the sample was less than 0.2 mm×0.2 mm, and slice thickness was between 50 and 90 nm (Lycra UC7). The samples were detected by TEM (Hitachi H-7650) at 80 kV, and photographs of the samples were taken by a Gatan832 CCD camera (Gatan). […]

[6] = tested on: citrate synthase in Streptococcus; assay: Citrate synthase activity of bacteria after treatment; format: cell-based, Streptococcus pneumoniae; conditions: MT 1-3 mg/mL, 12 h, also with exogenous citric acid, FIG. 28
Procedure: Further, 1 mL of Klebsiella pneumoniae, Pseudomonas aeruginosa, Diplococcus pneumoniae and Streptococcus pneumoniae at the logarithmic growth stage was added into 100 mL of fresh and sterile Martin broth liquid medium containing different concentrations of melatonin and citric acid (MT-1 mg/mL, MT-2 mg/mL, MT-3 mg/mL, CA-1 mg/mL, CA-2 mg/mL, CA-3 mg/mL, MT-1 mg/mL-CA-1 mg/mL, MT-2 mg/mL-CA-2 mg/mL, MT-3 mg/mL-CA-3 mg/mL) added was. Melatonin-free DMSO was used as the solvent control group, and the bacterial cells were cultured in a constant-temperature shaker at 37° C. and 220 rpm for 12 h. Thereafter, 1 mL of the bacterial solution was pipetted and centrifuged at 3000 r/min for 10 minutes. The bacterial cells were then collected and determined for citrate synthase activity according to the protocol of the instructions for the kit. Each experiment was repeated three times, and each group was set in triplicate.

[7] = tested on: Pasteurella multocida; assay: Killing bacteria by melatonin above MBC (OD600, living bacteria count); format: cell-based; conditions: for time to kill all bacteria: FIGS. 2 and 3
Procedure: Into 100 mL of fresh and sterile Martin broth medium, 1 mL of Pasteurella multocida (1×10^9 CFU) at the logarithmic growth stage was added. The bacteria were cultured in a constant-temperature shaker under conditions of 37° C. and 220 rpm for 8 hours. […] After the addition of MT, the bacterial culture was continuously measured for OD600 every 20 minutes to depict a growth curve under the action of melatonin at a concentration higher than the MBC. At the same time, 100 μL of the bacterial culture was evenly coated on a Martin agar plate, and incubated at 37° C. for 24 h so as to calculate the number of living bacteria for bacterial counting.

## COc1ccc2[nH]cc(CCNC(C)=O)c2c1 [melatonin, N-acetyl-5-methoxytryptamine]
[1]
  antibacterial activity: exhibits antibacterial activity
[2]
  antibacterial activity: exhibits antibacterial activity
[3]
  antibacterial activity: exhibits antibacterial activity
[4]
  damage to bacterial cell membrane (SYTO9 / propidium iodide fluorescence): the red fluorescence increased and the green fluorescence decreased; also recorded: damages the cell membrane
[5]; FIG. 10
  cell morphology in SEM analysis: many holes passing through the OM, peptidoglycan (PG) layers and CM
[5]; FIG. 11
  cell morphology in TEM image: obvious cytoplasmic vacuolization
[6]
  enzyme activity of citrate synthase: not influenced
[7]; 4 mg/mL of melatonin, added after 8 hours culture
  time to kill all bacteria: 10 h
[7]; concentration higher than the MBC (4, 8, 10 mg/mL)
  bactericidal effect: significant bactericidal effect in a dose-dependent manner
[7]; higher concentration of melatonin (8, 10 mg/mL)
  time to kill all bacteria: 4 h
